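Where inhibition never reached the appropriate level, the endpoint shown equals the highest concentration tested. Otherwise, values were interpolated linearly from a five-concentration, 48-hour dose response in 96-well plates. TGI: total growth inhibition.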
System: SN12C renal
Assay: growth of human tumour cells (NCI), 48 h

For `O=C1C2CC=CCC2C(=O)N1n1c(Cc2ccc(Cl)cc2)n[nH]c1=O` (configuration not stated), which TGI is on record?
Its TGI is greater than 100 µM.

How did the TGI turn out when `N#Cc1c(-c2ccc(Cl)cc2)c2c([nH]c1=O)-c1ccccc1SC2` was run?
The TGI was greater than 100 µM.

System: CCRF-CEM leukemia
Assay: growth of human tumour cells (NCI), 48 h

`C=C1C(=O)C[C@H]2C(=C)C(=O)O[C@@H]2C2C1CC[C@@]2(C)O` (some centres not stated) was tested. Which TGI did it give?
Its TGI is greater than 100 µM.

With `O=C(NC(Cc1c[nH]c2ccccc12)C(=O)Nc1ccc(Br)cc1)OCc1ccccc1` (configuration not stated) as the molecule, how does the TGI read?
Its TGI is 36 µM.

`COC(=O)C1=C(C)NC2=C(C(=O)c3ccccc32)C1c1cn(-c2ccccc2)nc1-c1ccccc1` (configuration not stated) was tested. Which TGI did it give?
The TGI was greater than 100 µM.

How did the TGI turn out when `Cc1cc(C)n2nc3nc(N)c(C#N)c(-c4ccccc4)c3c2n1` was run?
The TGI was greater than 100 µM.

With `CCCCCCCCCC1(N=[N+]=[N-])C(=O)c2ccccc2N(C)C1=O` (configuration not stated) as the molecule, how does the TGI read?
The TGI was greater than 100 µM.

`CN(Cc1cnc2nc(N)nc(N)c2n1)c1ccc(C(=O)NC(CCC(=O)NCCC(P(=O)(O)O)P(=O)(O)O)C(=O)O)cc1` (configuration not stated) was tested. Which TGI did it give?
The TGI was greater than 100 µM.

How did the TGI turn out when `C[N+](CCCl)(CCCl)Cc1cccc2cccc([N+](=O)[O-])c12` was run?
Its TGI is greater than 100 µM.

Which TGI does the source give for `O=C1NC(=O)C(c2c[nH]c3ccccc23)=C1c1cnc[nH]1` here?
The TGI was greater than 100 µM.

With `CC(=O)O[C@H]1C[C@H]2[C@@H](OC(C)=O)/C=C3\C[C@](C)(C(=O)[C@H](O)C(=C1C)C2(C)C)[C@@H](O)C[C@@H]3OC(=O)[C@H](O)[C@H](c1ccccc1)N(C)C` as the molecule, how does the TGI read?
The TGI was greater than 100 µM.

`Nc1ncnc2c1ccn2C/C=C\CO` was tested. Which TGI did it give?
Its TGI is greater than 100 µM.

Which TGI does the source give for `Cc1c([N+](=O)[O-])ccc2c(NCCCN(C)C)ccnc12` here?
Its TGI is greater than 100 µM.

For `N#Cc1nc2ccccc2nc1N1CCN(c2ccc([N+](=O)[O-])cc2)CC1`, which TGI is on record?
Its TGI is greater than 100 µM.

For `N=C1/C(=C/c2ccc(F)cc2)C(=O)N=C2SC=NN12`, which TGI is on record?
Its TGI is greater than 100 µM.

`COC(=O)CC(C#N)(OP1(=O)OC(c2ccccc2)C(C)N1C)c1ccccc1` (configuration not stated) was tested. Which TGI did it give?
Its TGI is 38.7 µM.

For `CN1CCN(C(=O)CCNC(=O)Cc2ccc(C(=O)c3ccccc3)cc2)CC1`, which TGI is on record?
The TGI was greater than 100 µM.

Which TGI does the source give for `CC(=O)c1cccc(NC(=O)C(=O)NNc2n[nH]c(=S)n2N)c1` here?
The TGI was 20.3 µM.

Which TGI does the source give for `O=c1cc(N2CCOCC2)[nH]c(=O)n1-c1ccc(F)cc1` here?
Its TGI is greater than 100 µM.

For `O=C(O)CC1NC(/C(=C/c2ccccc2)NC(=O)c2ccccc2)OC1=O` (configuration not stated), which TGI is on record?
The TGI was 86.6 µM.

How did the TGI turn out when `COCC1OC(Sc2ccccc2)C(O)C(OC)C1OC` (configuration not stated) was run?
Its TGI is greater than 100 µM.

For `CCCn1c2ccccc2c2ccc3c(c21)C(=O)C=CC3=O`, which TGI is on record?
The TGI was 0.47 µM.

How did the TGI turn out when `C=C(CCC/C(C)=C/C=C/[C@]1(C)CCCc2ccoc21)CC(=O)O` was run?
Its TGI is greater than 100 µM.

With `O=C1C2CC=CCC2C(=O)N1n1c(Cc2ccc(Cl)cc2)n[nH]c1=O` (configuration not stated) as the molecule, how does the TGI read?
The TGI was greater than 100 µM.

Which TGI does the source give for `N#Cc1c(-c2ccc(Cl)cc2)c2c([nH]c1=O)-c1ccccc1SC2` here?
The TGI was 88.6 µM.

System: HCT-15 colon
Assay: growth of human tumour cells (NCI), 48 h

For `C=C1C(=O)C[C@H]2C(=C)C(=O)O[C@@H]2C2C1CC[C@@]2(C)O` (some centres not stated), which TGI is on record?
The TGI was 69.2 µM.

`O=C(NC(Cc1c[nH]c2ccccc12)C(=O)Nc1ccc(Br)cc1)OCc1ccccc1` (configuration not stated) was tested. Which TGI did it give?
Its TGI is 26.7 µM.

Which TGI does the source give for `COC(=O)C1=C(C)NC2=C(C(=O)c3ccccc32)C1c1cn(-c2ccccc2)nc1-c1ccccc1` (configuration not stated) here?
Its TGI is greater than 100 µM.

For `Cc1cc(C)n2nc3nc(N)c(C#N)c(-c4ccccc4)c3c2n1`, which TGI is on record?
The TGI was greater than 100 µM.

Which TGI does the source give for `CCCCCCCCCC1(N=[N+]=[N-])C(=O)c2ccccc2N(C)C1=O` (configuration not stated) here?
The TGI was greater than 100 µM.

With `CN(Cc1cnc2nc(N)nc(N)c2n1)c1ccc(C(=O)NC(CCC(=O)NCCC(P(=O)(O)O)P(=O)(O)O)C(=O)O)cc1` (configuration not stated) as the molecule, how does the TGI read?
Its TGI is greater than 100 µM.

For `C[N+](CCCl)(CCCl)Cc1cccc2cccc([N+](=O)[O-])c12`, which TGI is on record?
The TGI was greater than 100 µM.

With `O=C1NC(=O)C(c2c[nH]c3ccccc23)=C1c1cnc[nH]1` as the molecule, how does the TGI read?
Its TGI is greater than 100 µM.

Which TGI does the source give for `CC(=O)O[C@H]1C[C@H]2[C@@H](OC(C)=O)/C=C3\C[C@](C)(C(=O)[C@H](O)C(=C1C)C2(C)C)[C@@H](O)C[C@@H]3OC(=O)[C@H](O)[C@H](c1ccccc1)N(C)C` here?
The TGI was greater than 100 µM.

With `Nc1ncnc2c1ccn2C/C=C\CO` as the molecule, how does the TGI read?
Its TGI is greater than 100 µM.

Which TGI does the source give for `Cc1c([N+](=O)[O-])ccc2c(NCCCN(C)C)ccnc12` here?
The TGI was 32.7 µM.

How did the TGI turn out when `N#Cc1nc2ccccc2nc1N1CCN(c2ccc([N+](=O)[O-])cc2)CC1` was run?
Its TGI is greater than 100 µM.

For `N=C1/C(=C/c2ccc(F)cc2)C(=O)N=C2SC=NN12`, which TGI is on record?
The TGI was greater than 100 µM.

Which TGI does the source give for `COC(=O)CC(C#N)(OP1(=O)OC(c2ccccc2)C(C)N1C)c1ccccc1` (configuration not stated) here?
The TGI was greater than 100 µM.

With `CN1CCN(C(=O)CCNC(=O)Cc2ccc(C(=O)c3ccccc3)cc2)CC1` as the molecule, how does the TGI read?
Its TGI is greater than 100 µM.

With `CC(=O)c1cccc(NC(=O)C(=O)NNc2n[nH]c(=S)n2N)c1` as the molecule, how does the TGI read?
The TGI was 15.9 µM.

`O=c1cc(N2CCOCC2)[nH]c(=O)n1-c1ccc(F)cc1` was tested. Which TGI did it give?
Its TGI is greater than 100 µM.

With `O=C(O)CC1NC(/C(=C/c2ccccc2)NC(=O)c2ccccc2)OC1=O` (configuration not stated) as the molecule, how does the TGI read?
The TGI was greater than 100 µM.

`COCC1OC(Sc2ccccc2)C(O)C(OC)C1OC` (configuration not stated) was tested. Which TGI did it give?
The TGI was greater than 100 µM.

`CCCn1c2ccccc2c2ccc3c(c21)C(=O)C=CC3=O` was tested. Which TGI did it give?
Its TGI is 4.7 µM.

`C=C(CCC/C(C)=C/C=C/[C@]1(C)CCCc2ccoc21)CC(=O)O` was tested. Which TGI did it give?
The TGI was greater than 100 µM.

For `O=C1C2CC=CCC2C(=O)N1n1c(Cc2ccc(Cl)cc2)n[nH]c1=O` (configuration not stated), which TGI is on record?
The TGI was greater than 100 µM.

For `N#Cc1c(-c2ccc(Cl)cc2)c2c([nH]c1=O)-c1ccccc1SC2`, which TGI is on record?
Its TGI is greater than 100 µM.

System: HL-60(TB) leukemia
Assay: growth of human tumour cells (NCI), 48 h

`C=C1C(=O)C[C@H]2C(=C)C(=O)O[C@@H]2C2C1CC[C@@]2(C)O` (some centres not stated) was tested. Which TGI did it give?
Its TGI is greater than 100 µM.

How did the TGI turn out when `O=C(NC(Cc1c[nH]c2ccccc12)C(=O)Nc1ccc(Br)cc1)OCc1ccccc1` (configuration not stated) was run?
The TGI was 22.2 µM.

How did the TGI turn out when `COC(=O)C1=C(C)NC2=C(C(=O)c3ccccc32)C1c1cn(-c2ccccc2)nc1-c1ccccc1` (configuration not stated) was run?
The TGI was greater than 100 µM.

With `Cc1cc(C)n2nc3nc(N)c(C#N)c(-c4ccccc4)c3c2n1` as the molecule, how does the TGI read?
Its TGI is greater than 100 µM.

`CCCCCCCCCC1(N=[N+]=[N-])C(=O)c2ccccc2N(C)C1=O` (configuration not stated) was tested. Which TGI did it give?
Its TGI is greater than 100 µM.

Which TGI does the source give for `CN(Cc1cnc2nc(N)nc(N)c2n1)c1ccc(C(=O)NC(CCC(=O)NCCC(P(=O)(O)O)P(=O)(O)O)C(=O)O)cc1` (configuration not stated) here?
The TGI was greater than 100 µM.

For `C[N+](CCCl)(CCCl)Cc1cccc2cccc([N+](=O)[O-])c12`, which TGI is on record?
Its TGI is greater than 100 µM.

For `O=C1NC(=O)C(c2c[nH]c3ccccc23)=C1c1cnc[nH]1`, which TGI is on record?
The TGI was greater than 100 µM.

How did the TGI turn out when `CC(=O)O[C@H]1C[C@H]2[C@@H](OC(C)=O)/C=C3\C[C@](C)(C(=O)[C@H](O)C(=C1C)C2(C)C)[C@@H](O)C[C@@H]3OC(=O)[C@H](O)[C@H](c1ccccc1)N(C)C` was run?
Its TGI is greater than 100 µM.
